Measurements from PMC8163145 (Chemical Science, 2020).

Tests used:
LHPP [1] = details: pH 8.2, in the presence of 1 mM MgCl2; LHPP isolated from bovine liver; cited from earlier work
[2] = 60 °C, neutral pH; cited from earlier work
LHPP [3] = target: T1, LHPP (Homo sapiens, UniProt Q9H008); type: biochemical
T1 sequence (Q9H008 1-270): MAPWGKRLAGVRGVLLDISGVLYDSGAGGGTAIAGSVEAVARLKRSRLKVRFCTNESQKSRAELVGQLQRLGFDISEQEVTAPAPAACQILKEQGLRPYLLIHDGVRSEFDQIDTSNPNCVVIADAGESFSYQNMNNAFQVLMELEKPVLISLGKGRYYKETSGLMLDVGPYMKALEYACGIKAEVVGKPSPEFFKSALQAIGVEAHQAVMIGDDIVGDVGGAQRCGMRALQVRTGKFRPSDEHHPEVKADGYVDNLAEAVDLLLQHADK

| Compound | released phosphate (LHPP activity) (LHPP [1]) | half-life time [2] | enzymatically hydrolyzed substrate (LHPP [3]; 100 μM 1a, 0.25 μg LHPP, 200 μL, after 60 minutes, background subtracted) | hydrolysis rate by LHPP (LHPP [3]; 100 μM substrate, 200 μL 50 mM Tris–HCl, 1 mM MgCl2, pH 7.8, 0.25 μg LHPP (0.037 μM)) |
| --- | --- | --- | --- | --- |
| O=P(O)(O)NP(=O)(O)O [PNP, imidodiphosphate] | 0.44 µmol/min/mg | – | – | – |
| O=P(O)(O)OP(=O)(O)O [PPi, pyrophosphate] | 0.11 µmol/min/mg | – | – | – |
| N[C@@H](CCCCNP(=O)(O)O)C(=O)O [Substrate 1a, N6-phosphono-L-lysine] | – | less than 1 h | roughly 50% | 0.88 µmol/min/mg |
